Measurements: patent publication US8686016B2, “Schweinfurthins and uses thereof” (The United States of America, as represented by the …, priority 2009, dated 2014)

How the values were obtained:
MPNST K14553 cells = assay: XTT cell proliferation assay, K14553; assay type: cell-based, mouse
Protocol: (§1) Establishment of NPcis MPNST cell lines: Mice were euthanized by CO2 asphyxiation and tumors were dissected. The tumor volume was measured. The tumor was then cut in half, and ½ fixed in 4% PFA. The other half was rinsed, then cut into 24 pieces of approximately equal size. Each piece was diced with a razor blade and placed in 1 well of a 24 well plate, along with 625 μL of Triple Express (Gibco, Grand Island, N.Y., USA) and 5 μL of recombinant DNAse (Roche, Indianapolis, Ind., USA). Tumors were triturated, then incubated at 37° C. in a 5% CO2 incubator for 2-5 hours, with an additional trituration halfway through incubation time. At the end of the incubation, tumor pieces were triturated again, and suspended cells were transferred to 1.5 mL eppendorf tubes. […] Both plates were monitored for cell growth, grown up to 10 cm plates, and frozen down in 10% DMSO. […]
(§2) XTT Cell Proliferation Assay: Cells were seeded into 96-well plates at a density of 2,000 cells/well and allowed to reattach overnight. Cells were treated with SA, synthetic analogs, camptothecin (NCI Chemotherapeutics Repository, Md., USA), or DMSO control at the indicated concentrations continuously for 48 hours followed by assay in the 96-well plate for relative viable cell number using the dye […] (XTT) and a Wallac-Victor 2 plate reader (Perkin-Elmer, Waltham, Mass., USA). […]

MPNST T265 cells = assay: XTT cell proliferation assay, T265; assay type: cell-based, human
Protocol: (§3) XTT Cell Proliferation Assay: Cells were seeded into 96-well plates at a density of 2,000 cells/well and allowed to reattach overnight. Cells were treated with SA, synthetic analogs, camptothecin (NCI Chemotherapeutics Repository, Md., USA), or DMSO control at the indicated concentrations continuously for 48 hours followed by assay in the 96-well plate for relative viable cell number using the dye […] (XTT) and a Wallac-Victor 2 plate reader (Perkin-Elmer, Waltham, Mass., USA). Absorbance was determined at 450 nm with 650 nm as a reference reading. Primary astrocytes were additionally assayed at a 96 hour time point.
Cell lines and culture: Human MPNST cell lines (STS26T and T265) were obtained from the Pediatric Oncology Branch, NCI (Bethesda, Md., USA).

Chemical stability = assay type: physicochemical; settings: compared with the free resorcinols
NCI 60-cell line panel = assay: NCI 60 cell line assay; assay type: cell-based, human
MPNST K16561 cells = assay: XTT cell proliferation assay, K16561; assay type: cell-based, mouse
Protocol: as §1, §2

[1] = system: KR158 cells stably transfected with GFP-actin; assay: Cell morphology / actin confocal microscopy, KR158 GFP-actin; assay type: cell-based, mouse; settings: 16-18 hrs treatment
Protocol: Doxorubicin studies: KR158 stably transfected with GFP-actin were treated with 25 and 50 μM doxorubicin for 18 hrs continuously.
Cell Morphology Assays and Confocal Microscopy: To assay cytoskeleton morphology, KR158 cells, mouse primary astrocytes, KR158 clones expressing the NF1-GRD constructs, K14553 cells, and A549 were seeded to cover slips and allowed to reattach overnight. Cells were treated for 18 hours with either the indicated concentrations of SA, or the vehicle control DMSO. The cover slips were fixed in 3.7% paraformaldehyde, permeablized in 0.1% Triton-X100, and stained with Alexa Fluor 488-phalloidin (Invitrogen, Carlsbad, Calif., USA) to detect actin and cells were mounted in Prolong Antifade containing DAPI (Invitrogen) to stain nuclei. The cells were imaged on a LSM510 confocal microscope (Carl Zeiss Inc., Jena, Germany). […] KR158 GFP-actin transfected cells were seeded to 8-well chamber slides, allowed to reattach, and then treated with indicated concentrations of SA. Actin structures were monitored continuously over a 16 hr period using confocal microscopy equipped with a growth chamber (37° C., humidified atmosphere and 5% CO2). To compare SA to Rho/Rock inhibitors, KR158 GFP-actin cells were treated with SA or with the Rho pathway inhibitors Rock inhibitor Y-27632 (Sigma, St. Louis, Mo., USA), and the Rho inhibitor C3 transferase (Cytoskeleton, Inc., Denver, Colo., USA, cat# CT04) for 16 hrs, and then examined by confocal microscopy.

A549 cells = assay: XTT cell proliferation assay, A549; assay type: cell-based, human; settings: 48 hours
Protocol: as §3

CC(C)=CCC/C(C)=C/Cc1c(O)cc(/C=C/c2cc(O)c3c(c2)C[C@@H]2C(C)(C)[C@H](O)CC[C@@]2(C)O3)cc1O [3dSB, 3-Deoxyschweinfurthin B]
inhibition of proliferation (percent viability versus control) (MPNST K14553 cells): sensitive

COc1cc(/C=C/c2cc3c(c(OC)c2)O[C@]2(C)C[C@@H](O)[C@@H](O)C(C)(C)[C@H]2C3)cc(O)c1CC=C(C)C [5′MeSE, 5′-Methylschweinfurthin E]
inhibition of proliferation (percent viability versus control) (MPNST T265 cells): sensitive
chemical stability (Chemical stability): more stable chemically than the free resorcinols
GI50 (NCI 60-cell line panel): low nM range

COc1cc(/C=C/c2cc(O)c3c(c2)C[C@@H]2C(C)(C)[C@H](O)CC[C@@]2(C)O3)cc(O)c1CC=C(C)C [5′MeSG, 5′-Methylschweinfurthin G]
inhibition of proliferation (percent viability versus control) (MPNST T265 cells): sensitive
chemical stability (Chemical stability): more stable chemically than the free resorcinols
GI50 (NCI 60-cell line panel): low nM range
inhibition of proliferation (percent viability versus control) (MPNST K16561 cells): sensitive

COc1cc(/C=C/c2cc(O)c(C/C=C(\C)CCC=C(C)C)c(O)c2)cc2c1O[C@]1(C)C[C@@H](O)[C@@H](O)C(C)(C)[C@H]1C2 [SB, Schweinfurthin B]
inhibition of proliferation (percent viability versus control) (MPNST T265 cells): sensitive
differential cytotoxicity (NCI 60-cell line panel; NCI 60-cell line panel): significant differential cytotoxicity

C[C@@H](N)[C@H]1CC[C@H](C(=O)Nc2ccncc2)CC1 [Y-27632, reference compound]
F-actin staining / stress fibers [1]: dramatic loss of F-actin staining

CC[C@@]1(O)C(=O)OCc2c1cc1n(c2=O)Cc2cc3ccccc3nc2-1 [camptothecin, reference compound]
inhibition of proliferation (percent viability versus control) (A549 cells): sensitive

COc1cccc2c1C(=O)c1c(O)c3c(c(O)c1C2=O)C[C@@](O)(C(=O)CO)C[C@@H]3O[C@H]1C[C@H](N)[C@H](O)[C@H](C)O1 [doxorubicin, reference compound]
F-actin staining / stress fibers [1]: retained stress fibers

C3 transferase
F-actin staining / stress fibers [1]: dramatic loss of F-actin staining
